Like-named read-outs stand apart in the source and are kept apart here.

This note sets out measurements from patent publication US20220048915A1 (SHANGHAI PHARMACEUTICALS HOLDING CO., LTD., priority 2018, published 2022).

Test in all cases: In vitro inhibition of p38 kinase (LANCE Ultra TR-FRET)
Format in all cases: biochemical

One assay addresses T1, p38γ (Homo sapiens, UniProt P53778).
T1 sequence (P53778 1-367): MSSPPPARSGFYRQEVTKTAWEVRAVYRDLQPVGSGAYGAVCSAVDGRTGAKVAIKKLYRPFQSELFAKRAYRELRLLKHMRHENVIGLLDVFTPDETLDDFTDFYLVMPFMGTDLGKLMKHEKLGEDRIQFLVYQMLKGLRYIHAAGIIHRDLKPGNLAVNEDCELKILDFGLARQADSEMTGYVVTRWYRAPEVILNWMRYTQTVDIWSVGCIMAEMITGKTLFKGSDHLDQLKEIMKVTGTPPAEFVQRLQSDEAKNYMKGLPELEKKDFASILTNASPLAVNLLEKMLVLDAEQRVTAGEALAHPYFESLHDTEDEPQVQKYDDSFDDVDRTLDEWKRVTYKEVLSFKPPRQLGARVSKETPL
As for the experimental part: 10 mM of the storage solution of the test compound was taken and placed in a 96-well compound plate, and using DMSO for the compound at an initial concentration of 100×, which was then used as the first concentration and then carried out a 3-fold gradient dilution with DMSO for a total of 10 concentrations. After that, 1 μL of gradient dilutions were added to 19 μL of 1× reaction buffer to prepare 5× compound for later use. […] To the compound-free control well was added 2 μL of the following liquid: 19 μL of 1× reaction buffer with addition of 1 μL of DMSO. To the Min control well was added 2 μL of 250 mM EDTA.
1× of LANCE® Detection value Buffer was used to prepare a 2×Antibody for use, and the amount was 5 μL per well, at the same time 10 mM EDTA was prepared for later use. After the enzyme reaction was carried out for 30 minutes, 5 μL 10 mM EDTA was added to the 384-well plate and the reaction was carried out at room temperature for 5 minutes. Afterwards, 5 μL LANCE® Ultra Europium-anti-phospho-eIF4E-binding protein 1 (Thr37/46) was added to the 384-well plate and the reaction was carried out at room temperature for one hour.

The target of a further assay is p38α (Homo sapiens, UniProt Q16539).
In another assay the target is p38β (Homo sapiens, UniProt Q15759).
[1] abbreviates: read-out: Kinase in vitro IC50(nM) p38γ.
Where [2] appears, read: read-out: Kinase in vitro IC50(nM) p38α.
Where [3] appears, read: read-out: Kinase in vitro IC50(nM) p38β.

Chain of p38β (Q15759 whole entry): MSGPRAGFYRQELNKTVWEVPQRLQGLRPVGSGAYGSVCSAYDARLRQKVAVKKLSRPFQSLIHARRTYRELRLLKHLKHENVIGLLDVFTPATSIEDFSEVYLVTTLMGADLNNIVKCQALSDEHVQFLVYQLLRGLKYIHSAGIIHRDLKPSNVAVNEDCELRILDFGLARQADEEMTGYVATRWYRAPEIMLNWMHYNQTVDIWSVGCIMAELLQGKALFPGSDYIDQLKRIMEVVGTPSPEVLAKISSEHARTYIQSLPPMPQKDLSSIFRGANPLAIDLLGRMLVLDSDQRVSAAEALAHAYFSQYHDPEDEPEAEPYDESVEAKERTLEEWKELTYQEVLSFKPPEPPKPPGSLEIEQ
Chain of p38α (Q16539 whole entry): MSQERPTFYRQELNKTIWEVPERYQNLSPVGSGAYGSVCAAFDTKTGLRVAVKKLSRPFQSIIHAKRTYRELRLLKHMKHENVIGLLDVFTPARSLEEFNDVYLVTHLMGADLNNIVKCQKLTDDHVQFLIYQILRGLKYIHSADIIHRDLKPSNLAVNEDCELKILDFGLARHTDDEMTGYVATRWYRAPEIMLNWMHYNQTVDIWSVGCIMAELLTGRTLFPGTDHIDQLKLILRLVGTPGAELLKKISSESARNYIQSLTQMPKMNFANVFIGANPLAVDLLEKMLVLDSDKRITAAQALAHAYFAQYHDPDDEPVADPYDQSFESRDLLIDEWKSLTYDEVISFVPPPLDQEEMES

For the compound `O=c1ncn2nc(Oc3cccc(F)c3)ccc2c1-c1c(Cl)cccc1Cl` [Compound I-25, 5-(2,6-dichlorophenyl)-2-(3-fluorophenoxy)-6H-pyrimido[1,6-b]pyridazin-6-one], the half-maximal inhibitory concentration (IC50) is over 3330 nM at p38γ (setting [1]), 151 nM at p38α (setting [2]) and 1430 nM on p38β (setting [3]).
On the same counts, the results for `CNC(=O)c1ccc(Cl)c(-c2c(=O)ncn3nc(Oc4ccc(F)cc4F)ccc23)c1` [Compound I-51, 4-chloro-3-(2-(2,4-difluorophenoxy)-6-oxo-6H-pyrimido[1,6-b]pyridazin-5-yl)-N-methylbenzamide] are over 3330 nM, 17.5 nM and 256 nM.
On to `O=c1ncn2nc(Oc3ccc(Cl)cc3)ccc2c1-c1c(Cl)cccc1Cl` [Compound I-33], for which the results for the concentration for half-maximal inhibition (IC50) at p38γ (setting [1]), on p38α (setting [2]) and at p38β (setting [3]) were over 3330 nM, 24 nM and 470 nM, respectively.
On the same counts, the results for `O=c1ncn2nc(OC3CCOCC3)ccc2c1-c1c(Cl)cccc1Cl` [Compound I-2, 5-(2,6-dichlorophenyl)-2-((tetrahydro-2H-pyran-4-yl)oxy)-6H-pyrimido[1,6-b]pyridazin-6-one] are over 3330 nM, 2690 nM and over 3330 nM.
The matching figures for `Cc1cccc(C)c1-c1c(=O)ncn2nc(Oc3ccc(F)cc3F)ccc12` [Compound I-45, 2-(2,4-difluorophenoxy)-5-(2,6-dimethylphenyl)-6H-pyrimido[1,6-b]pyridazin-6-one]: over 3330 nM, 35.4 nM and 643 nM.
`O=c1ncn2nc(Oc3ccc(F)cc3F)ccc2c1-c1cccc(Cl)c1Cl` [Compound I-52, 5-(2,3-dichlorophenyl)-2-(2,4-difluorophenoxy)-6H-pyrimido[1,6-b]pyridazin-6-one]: the IC50 is over 3330 nM at p38γ (setting [1]), 54.2 nM at p38α (setting [2]) and 947 nM on p38β (setting [3]).
The matching figures for `CCOc1ccc2c(-c3c(Cl)cccc3Cl)c(=O)ncn2n1` [Compound I-7, 5-(2,6-dichlorophenyl)-2-ethoxy-6H-pyrimido[1,6-b]pyridazin-6-one]: over 3330 nM, 1680 nM and over 3330 nM.
As for `O=c1ncn2nc(OC3CC(F)(F)C3)ccc2c1-c1c(Cl)cccc1Cl` [Compound I-1, 5-(2,6-dichlorophenyl)-2-(3,3-difluorocyclobutoxy)-6H-pyrimido[1,6-b]pyridazin-6-one], the IC50 at p38γ, against p38α and against p38β was over 3330 nM throughout.
As for `O=c1ncn2nc(OC3C=CCCC3)ccc2c1-c1c(Cl)cccc1Cl` (stereo not drawn) [Compound I-37, 2-(cyclohex-2-en-1-yloxy)-5-(2,6-dichlorophenyl)-6H-pyrimido[1,6-b]pyridazin-6-one], the IC50 at p38γ (setting [1]) is over 3330 nM; at p38α (setting [2]), 503 nM; at p38β (setting [3]) it was 2830 nM.
On the same counts, the results for `Cc1ccc(Oc2ccc3c(-c4c(Cl)cccc4Cl)c(=O)ncn3n2)cc1F` [Compound I-11, 5-(2,6-dichlorophenyl)-2-(3-fluoro-4-methylphenoxy)-6H-pyrimido[1,6-b]pyridazin-6-one] are over 3330 nM, 137 nM and 1220 nM.
The matching figures for `O=c1ncn2nc(Oc3ccc(F)cc3F)ccc2c1-c1ccc(Cl)c(Cl)c1` [Compound I-58, 5-(3,4-dichlorophenyl)-2-(2,4-difluorophenoxy)-6H-pyrimido[1,6-b]pyridazin-6-one]: over 3330 nM, 137 nM and over 3330 nM.
The matching figures for `O=c1ncn2nc(Oc3cncc(F)c3)ccc2c1-c1c(Cl)cccc1Cl` [Compound I-24, 5-(2,6-dichlorophenyl)-2-((5-fluoropyridin-3-yl)oxy)-6H-pyrimido[1,6-b]pyridazin-6-one]: over 3330 nM, 1980 nM and over 3330 nM.
For the compound `O=c1ncn2nc(OC3CCOC3)ccc2c1-c1c(Cl)cccc1Cl` (stereo not drawn) [Compound I-3, 5-(2,6-dichlorophenyl)-2-((tetrahydrofuran-3-yl)oxy)-6H-pyrimido[1,6-b]pyridazin-6-one], the IC50 at p38γ (setting [1]), at p38α (setting [2]) and at p38β (setting [3]) was over 3330 nM throughout.
On to `O=c1ncn2nc(Oc3ccc(F)cc3F)c(N3CCOCC3)cc2c1-c1c(Cl)cccc1Cl` [Compound I-61, 5-(2,6-dichlorophenyl)-2-(2,4-difluorophenoxy)-3-morpholinyl-6H-pyrimido[1,6-b]pyridazin-6-one], for which the IC50 at p38γ (setting [1]) is over 3330 nM; at p38α (setting [2]), 11.7 nM; at p38β (setting [3]), 32.7 nM.
The matching figures for `O=c1ncn2nc(NC3CC(F)(F)C3)ccc2c1-c1c(Cl)cccc1Cl` [Compound I-14, 5-(2,6-dichlorophenyl)-2-((3,3-difluorocyclobutyl)amino)-6H-pyrimido[1,6-b]pyridazin-6-one]: over 3330 nM, 1350 nM and over 3330 nM.
The matching figures for `O=c1ncn2nc(OCC(F)(F)F)ccc2c1-c1c(Cl)cccc1Cl` [Compound I-13, 5-(2,6-dichlorophenyl)-2-(2,2,2-trifluoroethoxy)-6H-pyrimido[1,6-b]pyridazin-6-one]: over 3330 nM, over 3330 nM and over 3330 nM.
The matching figures for `O=c1ncn2nc(OCC(F)F)ccc2c1-c1c(Cl)cccc1Cl` [Compound I-8, 5-(2,6-dichlorophenyl)-2-(2,2-difluoroethoxy)-6H-pyrimido[1,6-b]pyridazin-6-one]: over 3330 nM, over 3330 nM and over 3330 nM.
Consider `COc1ccc(Oc2ccc3c(-c4c(Cl)cccc4Cl)c(=O)ncn3n2)c(Cl)c1` [Compound I-9, 2-(2-chloro-4-methoxyphenoxy)-5-(2,6-dichlorophenyl)-6H-pyrimido[1,6-b]pyridazin-6-one], for which the figures for the half-maximal inhibitory concentration (IC50) at p38γ (setting [1]), at p38α (setting [2]) and on p38β (setting [3]) were over 3330 nM, 112 nM and 301 nM, respectively.
The matching figures for `Cc1cc(Cl)ccc1Oc1ccc2c(-c3c(Cl)cccc3Cl)c(=O)ncn2n1` [Compound I-34, 2-(4-chloro-2-methylphenoxy)-5-(2,6-dichlorophenyl)-6H-pyrimido[1,6-b]pyridazin-6-one]: over 3330 nM, 49.8 nM and 389 nM.
On the same counts, the results for `O=c1ncn2nc(OC3CC=CC3)ccc2c1-c1c(Cl)cccc1Cl` [Compound I-38, 2-(cyclopent-3-en-1-yloxy)-5-(2,6-dichlorophenyl)-6H-pyrimido[1,6-b]pyridazin-6-one] are over 3330 nM, 414 nM and 2160 nM.
On the same counts, the results for `CC(Oc1ccc2c(-c3c(Cl)cccc3Cl)c(=O)ncn2n1)c1ccc(F)cc1F` (stereo not drawn) [Compound I-41, 5-(2,6-dichlorophenyl)-2-(1-(2,4-difluorophenyl)ethoxy)-6H-pyrimido[1,6-b]pyridazin-6-one] are over 3330 nM, over 3330 nM and over 3330 nM.
For `O=c1ncn2nc(Oc3ccc(F)cc3F)ccc2c1C1=CCCCC1` [Compound I-44, 5-(cyclohex-1-en-1-yl)-2-(2,4-difluorophenoxy)-6H-pyrimido[1,6-b]pyridazin-6-one], the IC50 at p38γ (setting [1]) is over 3330 nM; at p38α (setting [2]), 31 nM; on p38β (setting [3]) it was 635 nM.
On the same counts, the results for `O=c1ncn2nc(Oc3ccc(F)cc3F)ccc2c1-c1c(F)cccc1F` [Compound I-49, 2-(2,4-difluorophenoxy)-5-(2,6-difluorophenyl)-6H-pyrimido[1,6-b]pyridazin-6-one] are over 3330 nM, 14.1 nM and 213 nM.
On the same counts, the results for `O=c1ncn2nc(Oc3ccc(F)cc3F)ccc2c1-c1c(F)cc(F)cc1F` [Compound I-57, 5-(2,4,6-trifluorophenyl)-2-(2,4-difluorophenoxy)-6H-pyrimido[1,6-b]pyridazin-6-one] are over 3330 nM, 22.7 nM and 614 nM.
On the same counts, the results for `Cc1cc(F)ccc1Oc1ccc2c(-c3c(Cl)cccc3Cl)c(=O)ncn2n1` [Compound I-28, 5-(2,6-dichlorophenyl)-2-(4-fluoro-2-methylphenoxy)-6H-pyrimido[1,6-b]pyridazin-6-one] are over 3330 nM, 38.8 nM and over 3330 nM.
As for `O=c1ncn2nc(Oc3ccc(F)cc3F)c(-c3ccncc3)cc2c1-c1c(Cl)cccc1Cl` [Compound I-59, 5-(2,6-dichlorophenyl)-2-(2,4-difluorophenoxy)-3-(pyridin-4-yl)-6H-pyrimido[1,6-b]pyridazin-6-one], the figures for the IC50 on p38γ (setting [1]), on p38α (setting [2]) and at p38β (setting [3]) were over 3330 nM, 81.3 nM and 1220 nM, respectively.
